Activity calls are given as the source filed them.

Experiment [1] concerns the target Cell division cycle 7-related protein kinase (Homo sapiens, UniProt O00311).
In experiment [2] the target is Serine/threonine-protein kinase MRCK gamma (Homo sapiens, UniProt Q6DT37).
The target of experiment [3] is T1, Structural maintenance of chromosomes protein 1A (Homo sapiens, UniProt Q14683).
T1 sequence (Q14683 whole entry): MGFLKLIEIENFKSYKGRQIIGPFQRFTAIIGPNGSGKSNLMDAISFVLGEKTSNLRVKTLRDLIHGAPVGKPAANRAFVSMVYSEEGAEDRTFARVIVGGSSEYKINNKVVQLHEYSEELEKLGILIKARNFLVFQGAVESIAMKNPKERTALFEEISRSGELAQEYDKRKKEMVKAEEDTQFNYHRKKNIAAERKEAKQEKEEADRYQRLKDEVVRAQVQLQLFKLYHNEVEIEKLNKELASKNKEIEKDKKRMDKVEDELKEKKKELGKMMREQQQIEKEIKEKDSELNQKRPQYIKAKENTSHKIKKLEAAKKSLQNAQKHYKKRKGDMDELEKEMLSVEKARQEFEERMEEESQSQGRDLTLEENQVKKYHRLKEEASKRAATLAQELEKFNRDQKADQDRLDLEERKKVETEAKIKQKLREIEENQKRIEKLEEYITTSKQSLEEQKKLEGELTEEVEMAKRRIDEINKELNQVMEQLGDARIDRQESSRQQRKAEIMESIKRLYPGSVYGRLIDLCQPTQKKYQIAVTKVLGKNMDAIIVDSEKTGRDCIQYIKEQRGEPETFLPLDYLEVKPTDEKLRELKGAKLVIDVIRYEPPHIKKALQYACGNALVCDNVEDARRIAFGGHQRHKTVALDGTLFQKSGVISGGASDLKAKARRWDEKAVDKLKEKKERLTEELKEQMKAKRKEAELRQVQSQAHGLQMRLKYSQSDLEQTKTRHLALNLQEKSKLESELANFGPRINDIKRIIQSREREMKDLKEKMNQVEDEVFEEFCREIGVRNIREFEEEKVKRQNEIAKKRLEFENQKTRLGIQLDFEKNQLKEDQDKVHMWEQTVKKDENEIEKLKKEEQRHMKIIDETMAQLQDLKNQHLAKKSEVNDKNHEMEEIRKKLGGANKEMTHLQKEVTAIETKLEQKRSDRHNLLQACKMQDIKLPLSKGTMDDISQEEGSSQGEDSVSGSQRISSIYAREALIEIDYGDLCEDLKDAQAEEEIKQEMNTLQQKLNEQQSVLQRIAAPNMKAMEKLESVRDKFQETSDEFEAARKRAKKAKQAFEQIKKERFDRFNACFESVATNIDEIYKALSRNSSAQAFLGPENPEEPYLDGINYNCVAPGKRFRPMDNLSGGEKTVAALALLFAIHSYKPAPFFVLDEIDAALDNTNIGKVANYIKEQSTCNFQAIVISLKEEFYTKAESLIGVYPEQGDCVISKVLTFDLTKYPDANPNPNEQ

Experiment [4] concerns the target T2, Discoidin domain-containing receptor 2 (Homo sapiens, UniProt Q16832).
T2 sequence (Q16832 whole entry): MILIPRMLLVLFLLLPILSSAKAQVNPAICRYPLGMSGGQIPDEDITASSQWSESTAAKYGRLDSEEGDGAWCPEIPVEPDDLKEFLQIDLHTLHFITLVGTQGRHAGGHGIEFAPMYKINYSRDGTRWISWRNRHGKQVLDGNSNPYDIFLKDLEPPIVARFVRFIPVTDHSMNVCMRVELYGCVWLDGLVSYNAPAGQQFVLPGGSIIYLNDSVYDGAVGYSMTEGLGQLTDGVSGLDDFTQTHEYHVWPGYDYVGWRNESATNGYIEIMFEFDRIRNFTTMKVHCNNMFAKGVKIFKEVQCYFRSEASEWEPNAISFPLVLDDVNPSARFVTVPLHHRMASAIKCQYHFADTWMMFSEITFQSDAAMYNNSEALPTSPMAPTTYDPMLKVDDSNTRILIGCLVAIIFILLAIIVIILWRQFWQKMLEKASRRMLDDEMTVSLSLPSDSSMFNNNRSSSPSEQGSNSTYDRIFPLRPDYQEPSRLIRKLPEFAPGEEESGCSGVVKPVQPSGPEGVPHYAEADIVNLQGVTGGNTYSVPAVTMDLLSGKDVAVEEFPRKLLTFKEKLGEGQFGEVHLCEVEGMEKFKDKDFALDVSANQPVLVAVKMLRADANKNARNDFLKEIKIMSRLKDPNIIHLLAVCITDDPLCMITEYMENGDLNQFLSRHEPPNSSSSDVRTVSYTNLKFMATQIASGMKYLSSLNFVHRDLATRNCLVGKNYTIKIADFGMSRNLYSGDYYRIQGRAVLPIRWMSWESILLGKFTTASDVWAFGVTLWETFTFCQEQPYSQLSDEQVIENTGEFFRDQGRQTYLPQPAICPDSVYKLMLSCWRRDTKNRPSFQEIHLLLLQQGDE

For experiment [5], the target named is T3, Dual specificity protein kinase TTK (Homo sapiens, UniProt P33981).
T3 sequence (P33981 whole entry): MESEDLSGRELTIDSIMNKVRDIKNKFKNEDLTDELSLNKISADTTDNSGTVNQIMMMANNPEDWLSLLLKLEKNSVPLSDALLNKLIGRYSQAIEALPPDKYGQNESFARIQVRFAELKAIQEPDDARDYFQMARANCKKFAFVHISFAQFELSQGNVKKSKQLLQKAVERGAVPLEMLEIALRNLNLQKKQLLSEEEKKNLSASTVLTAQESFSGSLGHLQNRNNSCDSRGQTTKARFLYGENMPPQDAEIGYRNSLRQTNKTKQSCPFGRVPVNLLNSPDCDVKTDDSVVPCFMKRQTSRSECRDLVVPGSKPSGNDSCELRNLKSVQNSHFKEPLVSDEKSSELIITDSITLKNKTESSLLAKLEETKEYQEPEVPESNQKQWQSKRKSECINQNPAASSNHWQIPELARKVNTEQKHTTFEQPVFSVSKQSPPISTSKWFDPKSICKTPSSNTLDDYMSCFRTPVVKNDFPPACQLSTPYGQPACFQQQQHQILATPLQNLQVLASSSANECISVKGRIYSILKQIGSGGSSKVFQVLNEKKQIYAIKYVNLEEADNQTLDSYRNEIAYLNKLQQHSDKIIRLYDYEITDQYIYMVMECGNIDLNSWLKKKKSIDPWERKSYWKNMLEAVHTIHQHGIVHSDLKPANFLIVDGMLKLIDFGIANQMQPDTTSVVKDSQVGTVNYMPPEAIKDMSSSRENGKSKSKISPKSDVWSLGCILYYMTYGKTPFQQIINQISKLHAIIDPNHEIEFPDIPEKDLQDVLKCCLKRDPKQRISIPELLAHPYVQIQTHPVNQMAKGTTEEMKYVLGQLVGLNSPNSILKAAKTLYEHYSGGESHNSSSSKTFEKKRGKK

Experiment [6] concerns the target Choline-phosphate cytidylyltransferase A (Homo sapiens, UniProt P49585).
Further: in the data inactive means no Kd found up to 30 µM.

Sequence of Serine/threonine-protein kinase MRCK gamma (Q6DT37 whole entry): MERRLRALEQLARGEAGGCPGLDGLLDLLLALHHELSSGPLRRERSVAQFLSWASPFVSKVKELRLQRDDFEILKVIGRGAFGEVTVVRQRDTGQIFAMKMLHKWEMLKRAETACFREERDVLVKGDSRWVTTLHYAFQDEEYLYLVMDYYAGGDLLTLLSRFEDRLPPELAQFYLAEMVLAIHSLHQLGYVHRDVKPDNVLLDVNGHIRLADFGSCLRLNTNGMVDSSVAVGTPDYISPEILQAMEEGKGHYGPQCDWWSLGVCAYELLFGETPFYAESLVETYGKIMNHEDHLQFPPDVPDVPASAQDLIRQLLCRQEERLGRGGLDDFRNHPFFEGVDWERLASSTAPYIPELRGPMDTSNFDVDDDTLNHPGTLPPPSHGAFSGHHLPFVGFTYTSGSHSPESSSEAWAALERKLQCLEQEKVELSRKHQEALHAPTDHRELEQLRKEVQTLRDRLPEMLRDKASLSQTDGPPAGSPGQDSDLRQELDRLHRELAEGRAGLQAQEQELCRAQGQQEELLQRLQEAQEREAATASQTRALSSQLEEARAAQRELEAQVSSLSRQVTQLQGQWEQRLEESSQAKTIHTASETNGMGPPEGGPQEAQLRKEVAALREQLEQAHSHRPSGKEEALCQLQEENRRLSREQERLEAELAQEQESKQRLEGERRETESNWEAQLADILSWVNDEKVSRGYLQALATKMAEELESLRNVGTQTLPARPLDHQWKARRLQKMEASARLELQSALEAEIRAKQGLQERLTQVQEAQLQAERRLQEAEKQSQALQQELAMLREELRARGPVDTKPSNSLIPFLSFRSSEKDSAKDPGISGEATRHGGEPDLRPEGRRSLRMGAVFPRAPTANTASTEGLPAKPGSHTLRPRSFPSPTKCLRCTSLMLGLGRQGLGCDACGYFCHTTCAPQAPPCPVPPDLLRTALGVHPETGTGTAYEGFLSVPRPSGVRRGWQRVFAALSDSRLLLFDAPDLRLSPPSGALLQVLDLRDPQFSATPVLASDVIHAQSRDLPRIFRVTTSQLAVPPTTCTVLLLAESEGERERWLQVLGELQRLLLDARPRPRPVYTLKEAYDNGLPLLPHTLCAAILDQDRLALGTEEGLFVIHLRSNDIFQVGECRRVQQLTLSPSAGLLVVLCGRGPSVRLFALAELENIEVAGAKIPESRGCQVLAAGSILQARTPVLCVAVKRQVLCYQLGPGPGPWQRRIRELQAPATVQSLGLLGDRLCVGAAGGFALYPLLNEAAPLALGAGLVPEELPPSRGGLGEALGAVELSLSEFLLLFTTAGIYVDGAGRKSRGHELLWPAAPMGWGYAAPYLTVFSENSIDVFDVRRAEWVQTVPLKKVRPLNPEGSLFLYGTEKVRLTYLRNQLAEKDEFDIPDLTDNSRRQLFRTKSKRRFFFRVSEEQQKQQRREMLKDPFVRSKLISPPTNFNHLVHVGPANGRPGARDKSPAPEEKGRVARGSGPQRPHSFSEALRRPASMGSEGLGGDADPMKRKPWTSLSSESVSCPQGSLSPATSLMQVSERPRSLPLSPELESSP
Sequence of Choline-phosphate cytidylyltransferase A (P49585 whole entry): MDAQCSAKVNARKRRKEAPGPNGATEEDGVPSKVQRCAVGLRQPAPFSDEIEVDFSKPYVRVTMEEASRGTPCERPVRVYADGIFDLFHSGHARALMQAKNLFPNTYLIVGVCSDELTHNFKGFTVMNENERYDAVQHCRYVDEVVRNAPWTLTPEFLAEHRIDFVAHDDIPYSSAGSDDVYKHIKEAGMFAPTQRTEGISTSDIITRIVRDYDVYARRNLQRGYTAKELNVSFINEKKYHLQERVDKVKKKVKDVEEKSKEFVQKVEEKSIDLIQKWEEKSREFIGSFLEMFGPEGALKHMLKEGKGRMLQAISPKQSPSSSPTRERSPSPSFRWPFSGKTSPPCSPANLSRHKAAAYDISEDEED
Sequence of Cell division cycle 7-related protein kinase (O00311 whole entry): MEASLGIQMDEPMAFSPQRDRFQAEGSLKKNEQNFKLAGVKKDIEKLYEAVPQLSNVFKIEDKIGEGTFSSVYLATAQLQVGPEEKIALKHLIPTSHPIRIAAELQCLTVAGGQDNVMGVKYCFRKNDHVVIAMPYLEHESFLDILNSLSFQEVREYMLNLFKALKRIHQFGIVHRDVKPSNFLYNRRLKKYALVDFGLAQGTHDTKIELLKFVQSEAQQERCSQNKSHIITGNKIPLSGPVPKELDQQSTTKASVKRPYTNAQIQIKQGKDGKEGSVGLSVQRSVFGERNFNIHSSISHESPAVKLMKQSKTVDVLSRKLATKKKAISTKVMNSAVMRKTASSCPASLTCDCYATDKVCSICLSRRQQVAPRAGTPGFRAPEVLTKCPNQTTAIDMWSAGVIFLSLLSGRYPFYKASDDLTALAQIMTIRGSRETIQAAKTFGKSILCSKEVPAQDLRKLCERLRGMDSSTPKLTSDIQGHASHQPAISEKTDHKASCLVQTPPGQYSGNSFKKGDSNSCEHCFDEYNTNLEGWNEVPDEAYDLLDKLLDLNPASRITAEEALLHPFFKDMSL

As for `CC(C)Nc1cc(-c2c[nH]c(C(=O)N[C@H](CO)c3cccc(Cl)c3)c2)c(Cl)cn1` [ULIXERTINIB], the Kd in experiment [1], in experiment [2], in experiment [3] and in experiment [4] was > 30 µM (inactive) throughout.

Consider `COc1cc(CCc2cc(NC(=O)c3ccc(N4C[C@@H](C)N[C@@H](C)C4)cc3)n[nH]2)cc(OC)c1` [AZD-4547], for which the Kd – broadly, the equilibrium constant for the complex coming apart – in experiment [1] is > 30 µM (inactive); in experiment [2], > 30 µM (inactive); in experiment [3], > 30 µM (inactive); in experiment [4], 12.9 µM (active).

As for `COc1ccc(-c2ccc3c(N4CCOC[C@@H]4C)nc(N4CCOC[C@@H]4C)nc3n2)cc1CO` [AZD-8055], the Kd in experiment [2], in experiment [3], in experiment [4] and in experiment [5] was > 30 µM (inactive) throughout.

Turning to `CN1CC[C@@H](c2c(O)cc(O)c3c(=O)cc(-c4ccccc4Cl)oc23)[C@@H]1CO`, the Kd in experiment [1], in experiment [3] and in experiment [4] was > 30 µM (inactive) throughout.

On to `Cn1cc(-c2ccc3nnc(C(F)(F)c4ccc5ncccc5c4)n3n2)cn1` [JNJ-38877605], for which the Kd in experiment [1], in experiment [6], in experiment [2], in experiment [3] and in experiment [4] was > 30 µM (inactive) throughout.

For the compound `Cc1c(F)cc(C(=O)NC2CC2)cc1-c1ccc(C(=O)NCC(C)(C)C)cn1` [LOSMAPIMOD], the Kd in experiment [2], in experiment [3], in experiment [4] and in experiment [5] was > 30 µM (inactive) throughout.

Take `CNC(=O)c1ccc(-c2cnc3ncc(Cc4ccc5ncccc5c4)n3n2)cc1F` [CAPMATINIB]: the Kd in experiment [1], in experiment [2], in experiment [3] and in experiment [4] was > 30 µM (inactive) each time.

Turning to `Cc1nc(N)sc1-c1ccnc(Nc2ccc(N3CCOCC3)cc2)n1` [CYC-116], the Kd in experiment [6] was > 30 µM (inactive); in experiment [3], > 30 µM (inactive); in experiment [4] it was > 30 µM (inactive); in experiment [5], 0.016 µM.

Regarding `C[C@@H](Nc1cc(F)cc(F)c1)c1cc(C(=O)N(C)C)cc2c(=O)cc(N3CCOCC3)oc12` [AZD-8186], the Kd in experiment [1], in experiment [3] and in experiment [4] was > 30 µM (inactive) throughout.

As for `CN1CCC(COc2cnc(-c3cccc(Cn4nc(-c5cccc(C#N)c5)ccc4=O)c3)nc2)CC1` [TEPOTINIB], the Kd in experiment [2], in experiment [3], in experiment [4] and in experiment [5] was > 30 µM (inactive) throughout.

For the compound `O=C(O)[C@]1(Cc2cccc(Nc3nccs3)n2)CC[C@@H](Oc2cccc(Cl)c2F)CC1` [MK-5108], the Kd in experiment [1], in experiment [6], in experiment [2], in experiment [3] and in experiment [4] was > 30 µM (inactive) throughout.

For the compound `COc1cc(OC)c(/C=C/S(=O)(=O)Cc2ccc(OC)c(NCC(=O)O)c2)c(OC)c1` [RIGOSERTIB], the Kd in experiment [1], in experiment [6], in experiment [2], in experiment [3] and in experiment [4] was > 30 µM (inactive) throughout.

For the compound `CCn1c(=O)c(-c2cc[nH]n2)cc2c(C)nc(N)nc21` [VOXTALISIB], the Kd in experiment [1], in experiment [2], in experiment [3] and in experiment [4] was > 30 µM (inactive) in each case.

With `Cn1ncc(Cl)c1-c1cc(C(=O)N[C@H](CN)Cc2cccc(F)c2)sc1Cl` [AFURESERTIB], the Kd in experiment [1], in experiment [2], in experiment [3] and in experiment [4] was > 30 µM (inactive) throughout.

For the compound `COC(=O)[C@@]1(O)C[C@H]2O[C@]1(C)n1c3ccccc3c3c4c(c5c6ccccc6n2c5c31)C(=O)NC4` [K-252A], the Kd in experiment [2] is > 30 µM (inactive); in experiment [3], > 30 µM (inactive); in experiment [4], > 30 µM (inactive); in experiment [5] it was 0.03 µM.

For the compound `Cc1ccc(S(=O)(=O)Nc2nc3ccccc3nc2Nc2ccc3nsnc3c2)cc1`, the Kd in experiment [3], in experiment [4] and in experiment [5] was > 30 µM (inactive) each time.

On to `O=C(Nc1ccc(-c2ccnc(Nc3ccc(N4CCOCC4)cc3)n2)cc1)C1CCCN1` (centres undefined) [XL-019], for which the Kd in experiment [1], in experiment [6], in experiment [2], in experiment [3] and in experiment [4] was > 30 µM (inactive) each time.

Turning to `CN1N=C(N)c2cn([C@@H]3O[C@H](COP(=O)(O)O)[C@@H](O)[C@H]3O)c3ncnc1c23` [TRICIRIBINE PHOSPHATE], the Kd in experiment [1], in experiment [6], in experiment [2], in experiment [3] and in experiment [4] was > 30 µM (inactive) throughout.

For `COCCNCc1ccc(-c2cc3nccc(Oc4ccc(NC(=S)NC(=O)Cc5ccc(F)cc5)cc4F)c3s2)nc1` [GLESATINIB], the Kd in experiment [1] is > 30 µM (inactive); in experiment [6], > 30 µM (inactive); in experiment [2], > 30 µM (inactive); in experiment [3], > 30 µM (inactive); in experiment [4] it was 1.49 µM (active).

The values are drawn from ChEMBL document CHEMBL3991601, “The target landscape of clinical kinase drugs” (Science, 2017).
